Measured values as given in patent publication US20080096906A1, “AMINOMETHYL-2-IMIDAZOLES” (priority 2006, published 2008).

biological target: TAAR1 (Mus musculus, UniProt Q923Y8); experiment: Radioligand binding to TAAR1 on membranes of stably transfected HEK293 cells; settings: not given
Sequence (Q923Y8 whole entry): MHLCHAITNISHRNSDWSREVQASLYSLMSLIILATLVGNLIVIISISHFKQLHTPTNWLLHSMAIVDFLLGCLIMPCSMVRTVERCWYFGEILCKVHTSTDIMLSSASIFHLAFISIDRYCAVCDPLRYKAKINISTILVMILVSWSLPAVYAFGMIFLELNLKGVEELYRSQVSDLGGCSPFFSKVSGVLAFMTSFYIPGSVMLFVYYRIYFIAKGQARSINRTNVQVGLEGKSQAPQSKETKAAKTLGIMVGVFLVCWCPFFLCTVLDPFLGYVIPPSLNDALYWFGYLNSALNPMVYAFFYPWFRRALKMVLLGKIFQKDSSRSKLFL

| SMILES | Ki [nM] |
| --- | --- |
| CN(Cc1ncc[nH]1)c1cccc(Cl)c1 [Example 2, (3-Chloro-phenyl)-(1H-imidazol-2-ylmethyl)-methyl-amine] | 30 |
| CN(Cc1ncc[nH]1)c1ccc(Cl)cc1 [Example 5, (4-Chloro-phenyl)-(1H-imidazol-2-ylmethyl)-methyl-amine] | 81 |
| COc1cccc(N(C)Cc2ncc[nH]2)c1 [Example 6, (1H-Imidazol-2-ylmethyl)-(3-methoxy-phenyl)-methyl-amine] | 73 |
| CC(C)N(Cc1ncc[nH]1)c1ccc(F)cc1 [Example 10, (4-Fluoro-phenyl)-(1H-imidazol-2-ylmethyl)-isopropyl-amine] | 94 |
| CCN(Cc1ncc[nH]1)c1cccc(F)c1 [Example 12, Ethyl-(3-fluoro-phenyl)-(1H-imidazol-2-ylmethyl)-amine] | 51 |
| COCCN(Cc1ncc[nH]1)c1ccccc1 [Example 21, (1H-Imidazol-2-ylmethyl)-(2-methoxy-ethyl)-phenyl-amine] | 82 |
| CCN(Cc1ncc[nH]1)c1cccc(Cl)c1 [Example 30, (3-Chloro-phenyl)-ethyl-(1H-imidazol-2-ylmethyl)-amine] | 36 |
| CC(C)N(Cc1ncc[nH]1)c1cc(Cl)cc(Cl)c1 [Example 37] | 65 |
| Cc1cccc(N(Cc2ncc[nH]2)C(C)C)c1 [Example 39, (1H-Imidazol-2-ylmethyl)-isopropyl-m-tolyl-amine] | 89 |
| CC(C)N(Cc1ncc[nH]1)c1cccc(OCc2ccccc2)c1 [Example 41, (3-Benzyloxy-phenyl)-(1H-imidazol-2-ylmethyl)-isopropyl-amine] | 21 |
| CC(C)N(Cc1ncc[nH]1)c1cccc(Oc2cccnc2)c1 [Example 43, (1H-Imidazol-2-ylmethyl)-isopropyl-[3-(pyridin-3-yloxy)-phenyl]-amine] | 25 |
| CC(C)N(Cc1ncc[nH]1)c1cccc(Cc2ccccc2)c1 [Example 45, (3-Benzyl-phenyl)-(1H-imidazol-2-ylmethyl)-isopropyl-amine] | 2 |
| CC(C)N(Cc1ncc[nH]1)c1cccc(-c2ccccc2)c1 [Example 46, Biphenyl-3-yl-(1H-imidazol-2-ylmethyl)-isopropyl-amine] | 77 |
| CC(C)N(Cc1ncc[nH]1)c1cccc(Oc2ccc(Cl)cc2)c1 [Example 51, [3-(4-Chloro-phenoxy)-phenyl]-(1H-imidazol-2-ylmethyl)-isopropyl-amine] | 82 |
| c1ccc(Oc2cccc(NCc3ncc[nH]3)c2)cc1 [Example 61, (1H-Imidazol-2-ylmethyl)-(3-phenoxy-phenyl)-amine] | 26.1 |
| c1ccc(COc2cccc(NCc3ncc[nH]3)c2)cc1 [Example 62, (3-Benzyloxy-phenyl)-(1H-imidazol-2-ylmethyl)-amine] | 2.8 |
| COc1cc(NCc2ncc[nH]2)ccc1Cl [Example 64, (4-Chloro-3-methoxy-phenyl)-(1H-imidazol-2-ylmethyl)-amine] | 25.9 |
| CCN(Cc1ncc[nH]1)c1cccc(Oc2ccccc2)c1 [Example 65, Ethyl-(1H-imidazol-2-ylmethyl)-(3-phenoxy-phenyl)-amine] | 11.1 |
| CCN(Cc1ncc[nH]1)c1cccc(OCc2ccccc2)c1 [Example 66, (3-Benzyloxy-phenyl)-ethyl-(1H-imidazol-2-ylmethyl)-amine] | 26.3 |
| CCN(Cc1ncc[nH]1)c1ccc(Cl)c(Cl)c1 [Example 68, (3,4-Dichloro-phenyl)-ethyl-(1H-imidazol-2-ylmethyl)-amine] | 33.1 |
| Brc1cccc(NCc2ncc[nH]2)c1 [Example 71, (3-Bromo-phenyl)-(1H-imidazol-2-ylmethyl)-amine] | 99.5 |
| Fc1ccc(NCc2ncc[nH]2)cc1F [Example 73, (3,4-Difluoro-phenyl)-(1H-imidazol-2-ylmethyl)-amine] | 70.8 |
| Fc1ccc(NCc2ncc[nH]2)cc1Cl [Example 74, (3-Chloro-4-fluoro-phenyl)-(1H-imidazol-2-ylmethyl)-amine] | 83.9 |
| Clc1ccc(NCc2ncc[nH]2)cc1Cl [Example K8, (3,4-dichloro-phenyl)-(1H-imidazol-2-ylmethyl)-amine, reference compound] | 55 |

same assay, conditions: read-out: calculated Kd value of the radioligand; radioligand used at a concentration equal to its Kd; species not stated

| SMILES | Kd [nM] |
| --- | --- |
| c1ccc2c(c1)CCCC2C1=NCCN1 (racemic) [[^3H]-rac-2-(1,2,3,4-tetrahydro-1-naphthyl)-2-imidazoline, reference compound] | 60 |
